ChEMBL document CHEMBL3585335, “Isolation and Synthetic Diversification of Jadomycin 4-Amino-l-phenylalanine” (J Nat Prod, 2015)
Calls of active or inactive are those of the source.

Key:
[1] = test system: Escherichia coli; assay: Effect on Copper-mediated Escherichia coli pUC19 DNA cleavage at 100 uM by gel-electrophoresis analysis
[2] = test system: Escherichia coli; assay: Effect on Copper-mediated Escherichia coli pBR322 DNA cleavage at 100 uM by gel-electrophoresis analysis
[3] = test system: Escherichia coli; assay: Effect on photodynamic inactivation in Escherichia coli pUC19 DNA assessed as photo-mediated DNA cleavage at 10 to 100 uM by ethidium bromide gel-electrophoresis analysis

Measured: Activity

Cc1cc(O)c2c(c1)C1OC(=O)[C@H](Cc3ccc(NC(=O)COc4ccc5ccccc5c4)cc3)N1C1=C2C(=O)c2cccc(O[C@H]3C[C@@H](O)[C@@H](O)[C@H](C)O3)c2C1=O (stereo partly drawn)
inactive: all assays above
